# Laboratory results reported in patent US12617785B2, “Pyrrolo[2,3-b]pyridine-3-carboxamide compositions and methods for ameliorating hearing loss” (priority 2020, dated 2026).
# Columns and labels:
# Yap = Yap phosphorylation by western blot in cultured utricles; type: cell-based; details: utricles from adult mice
# Procedure: (§1) The compound T01 was tested extensively to explore its mechanism of action and its utility in regenerating hair cells of the ear. The effects of the compounds were tested on utricles isolated from mice eight to twelve weeks of age. Internal ears were dissected from mice euthanized with fluothane and placed into ice-cold Hank's balanced salt solution, and cultured as previously described by Gnedeva, K. & Hudspeth [Proc. Natl. Acad. Sci. 112, 14066-14071 (2015)].
# (§2) ; T01-treated=250 EdU+ supporting cells; […]
# [1] = tested on: adult utricular supporting cells; assay: EdU proliferation assay in cultured adult utricles; type: cell-based, mice; details: after 5 days of treatment; control=20; p=0.021
# Procedure: as §1
# For proliferation assays, utricles were cultured with 10 μM 5-ethynyl-2′-deoxyuridine (EdU) that was detected with click chemistry.
# as §2
# Lats1 [2] = molecular target: T1, Lats1 (Homo sapiens, UniProt O95835); assay: In vitro kinase assay (HTRF KinEASE-STK S1) Lats1, 10 uM ATP; type: biochemical
# T1 construct: purchased Carna 01-123
# T1 sequence (O95835 1-1130): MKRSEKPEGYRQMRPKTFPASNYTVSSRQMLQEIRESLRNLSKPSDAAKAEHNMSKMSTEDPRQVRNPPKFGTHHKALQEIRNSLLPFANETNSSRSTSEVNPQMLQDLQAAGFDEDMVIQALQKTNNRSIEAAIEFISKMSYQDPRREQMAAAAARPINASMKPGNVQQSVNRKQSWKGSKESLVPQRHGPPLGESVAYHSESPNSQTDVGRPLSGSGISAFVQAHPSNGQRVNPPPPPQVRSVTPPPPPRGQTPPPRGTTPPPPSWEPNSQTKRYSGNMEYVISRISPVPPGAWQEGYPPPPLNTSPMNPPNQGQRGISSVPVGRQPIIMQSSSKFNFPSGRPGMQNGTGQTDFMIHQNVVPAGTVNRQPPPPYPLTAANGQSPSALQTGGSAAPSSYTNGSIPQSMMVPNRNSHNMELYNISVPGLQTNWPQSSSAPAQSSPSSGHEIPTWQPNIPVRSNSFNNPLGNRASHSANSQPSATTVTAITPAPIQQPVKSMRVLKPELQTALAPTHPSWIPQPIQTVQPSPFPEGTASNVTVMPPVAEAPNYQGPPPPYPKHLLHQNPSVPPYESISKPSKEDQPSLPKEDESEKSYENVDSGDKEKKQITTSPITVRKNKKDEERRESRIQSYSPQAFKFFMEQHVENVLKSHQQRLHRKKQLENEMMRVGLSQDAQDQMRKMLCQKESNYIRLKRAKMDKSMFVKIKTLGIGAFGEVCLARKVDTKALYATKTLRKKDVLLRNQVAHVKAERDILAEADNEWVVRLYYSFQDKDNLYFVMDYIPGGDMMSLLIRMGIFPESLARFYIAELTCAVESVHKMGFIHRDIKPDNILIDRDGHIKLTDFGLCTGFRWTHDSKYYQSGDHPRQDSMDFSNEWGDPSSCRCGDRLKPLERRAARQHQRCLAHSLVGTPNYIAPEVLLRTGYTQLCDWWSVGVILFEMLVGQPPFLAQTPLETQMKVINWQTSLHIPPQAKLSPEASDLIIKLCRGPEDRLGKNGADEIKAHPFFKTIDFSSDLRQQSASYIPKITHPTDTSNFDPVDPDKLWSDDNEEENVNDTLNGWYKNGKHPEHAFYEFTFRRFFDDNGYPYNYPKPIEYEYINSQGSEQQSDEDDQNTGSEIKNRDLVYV
# Procedure: IVKA assay at 10 uM method:
# (§3) Reactions were conducted with 10 μM STK1 substrate and 10 μM ATP or 2 mM ATP as shown below. […] The enzyme, substrate, ATP, and test compound of the invention were combined in a low-volume 384-well plate and shaken for 50 min at room temperature, unless otherwise indicated. The reaction was stopped by adding the detection reagents, which were prepared at an 8:1 biotin:streptavidin ratio and shaking for 60 min at room temperature. All reactions were conducted in triplicate and a Synergy NEO (Biotek) was used to detect the signal.
# Lats1 [3] = molecular target: T1, Lats1; assay: In vitro kinase assay (HTRF KinEASE-STK S1) Lats1, 2 mM ATP; type: biochemical
# Procedure: as §3
# Assay was carried out in a 384 well plate. Each drug dosage curve was done with 16 points of 3-fold dilutions in 100% DMSO, and triplicate.
# [4] = 10 uM ATP, read-out: LATS1_HTRF_10 uM ATP IC50
# [5] = 2 mM ATP, read-out: LATS1_HTRF_2 mM ATP IC50
SMILES,IC50 (Lats1 [2]; [4]) [µM],IC50 (Lats1 [3]; [5]) [µM],other results
"O=C(/N=c1\sccn1Cc1ccccc1)c1c[nH]c2ncccc12 [T01, (Z)—N-(3-benzylthiazol-2(3H)-ylidene)-1H-pyrrolo[2,3-b]pyridine-3-carboxamide]",,,level of Yap phosphorylation as detected by western blot (Yap): striking reduction; EdU+ supporting cells [1]: 250
O=C(/N=c1\sccn1-c1ccccc1)c1c[nH]c2ncccc12 [T14],0.0003,0.003,
O=C(/N=c1\occn1Cc1ccccc1)c1c[nH]c2ncccc12 [T25],0.0019,0.0592,
"CC(c1ccccc1)n1ccs/c1=N\C(=O)c1c[nH]c2ncccc12 (stereo not drawn) [T39, (Z)—N-(3-(1-Phenylethyl)thiazol-2(3H)-ylidene)-1H-pyrrolo[2,3-b]pyridine-3-carboxamide]",,,IC50 (Lats1 [2]): 0.0019 µM; IC50 (Lats1 [3]): 0.0592 µM
"CC(N)CCn1ccs/c1=N\C(=O)c1c[nH]c2ncccc12 (stereo not drawn) [T41, (Z)—N-(3-(3-aminobutyl)thiazol-2(3H)-ylidene)-1H-pyrrolo[2,3-b]pyridine-3-carboxamide]",0.0044,0.303,
"NCc1ccccc1Cn1ccs/c1=N\C(=O)c1c[nH]c2ncccc12 [T43, (Z)—N-(3-(2-(aminomethyl)benzyl)thiazol-2(3H)-ylidene)-1H-pyrrolo[2,3-b]pyridine-3-carboxamide]",0.0022,0.141,
"N#Cc1cccc(Cn2ccs/c2=N\C(=O)c2c[nH]c3ncccc23)c1 [T44, (Z)—N-(3-(3-cyanobenzyl)thiazol-2(3H)-ylidene)-1H-pyrrolo[2,3-b]pyridine-3-carboxamide]",0.26,,
"NCc1cccc(Cn2ccs/c2=N\C(=O)c2c[nH]c3ncccc23)c1 [T45, (Z)—N-(3-(3-(aminomethyl)benzyl)thiazol-2(3H)-ylidene)-1H-pyrrolo[2,3-b]pyridine-3-carboxamide]",0.0307,0.309,
"N#Cc1ccc(Cn2ccs/c2=N\C(=O)c2c[nH]c3ncccc23)cc1 [T46, (Z)—N-(3-(4-cyanobenzyl)thiazol-2(3H)-ylidene)-1H-pyrrolo[2,3-b]pyridine-3-carboxamide]",0.391,,
"NCc1ccc(Cn2ccs/c2=N\C(=O)c2c[nH]c3ncccc23)cc1 [T47, (Z)—N-(3-(4-(aminomethyl)benzyl)thiazol-2(3H)-ylidene)-1H-pyrrolo[2,3-b]pyridine-3-carboxamide]",0.0832,,
"O=Cc1ccc(Cn2ccs/c2=N\C(=O)c2c[nH]c3ncccc23)cc1 [T48, (Z)—N-(3-(4-formylbenzyl)thiazol-2(3H)-ylidene)-1H-pyrrolo[2,3-b]pyridine-3-carboxamide]",,,IC50 (Lats1 [2]): 0.8 µM
Cc1cs/c(=N\C(=O)c2c[nH]c3ncccc23)n1Cc1ccccc1 [T49],,,IC50 (Lats1 [2]): 0.0027 µM; IC50 (Lats1 [3]): 0.0005 µM
Cn1nccc1Cn1ccs/c1=N\C(=O)c1c[nH]c2ncccc12 [T58],0.128,,
